These results are taken from article PMC9202104 (BMC Biology, 2022).

The term IC50 denotes the point on the concentration scale where inhibition reaches its midpoint. A word on the CC50: it is the concentration giving 50% cytotoxicity.

For data set [1], the system named is ZIKV human strain PAN2016 (2016/Panama). Put plainly: Plaque assay, inhibition of ZIKV infection (strain PAN2016). To be noted: for SI (CC50/IC50): CC50 Vero E6 / IC50 ZIKV PAN2016. The protocol:
(§1) After removal of the unbound compounds by centrifugation (after addition of 3% PEG-6000), ZIKV was incubated with Vero E6 cells in 24-well plates at 37°C for 1 h. The cells were then washed with PBS, overlaid with DMEM containing 1% carboxymethyl cellulose and 2% FBS, and cultured at 37°C for 4–5 days, followed by being stained with 0.5% crystal violet. […] Plaques in each well were calculated, and IC50 of compounds for each compound was calculated using the CalcuSyn computer program.

Data set [2] is described as follows: Cytotoxicity, Cell Counting Kit-8, Vero E6 cells. Format: cell-based. To be noted: African green monkey. The protocol: (§2) Briefly, compounds at 2-fold serial dilutions were added to the respective cells (2.0×10^4/well) pre-seeded in 96-well plates. The cells were cultured at 37°C in the presence of 5% CO2 for 3 days, […] incubated with CCK8 solution, followed by measurement of absorbance at 450 nm (A450 value), using a microplate reader (Infinite F200PRO, Tecan, Morrisville, NC, USA). CC50 of compounds was calculated using the CalcuSyn program.

In a further data set the test system is ZIKV infection. The conditions noted are these: read-out: IC50 against ZIKV infection (reported); cited from earlier work.
Data set [3] relates to ZIKV mosquito strain MEX 2-81. Kind of data set: Plaque assay, inhibition of ZIKV infection (strain MEX 2-81). Format: cell-based. The conditions noted are these: Zika virus, Vero C1008; plaque assay, Vero E6 cells, mosquito strain; read-out: IC50 MEX 2-81. The protocol:
as §1

The test system of data set [4] is ZIKV rhesus macaque strain MR 766. Put plainly: Plaque assay, inhibition of ZIKV infection (strain MR 766). It counts as cell-based. The conditions noted are these: Zika virus, Vero C1008; plaque assay, Vero E6 cells, rhesus strain; read-out: IC50 MR 766. The protocol: as §1
Data set [5] relates to ZIKV human strain R116265. Kind of data set: Plaque assay, inhibition of ZIKV infection (strain R116265). It counts as cell-based. To be noted: Zika virus, Vero C1008, Vero E6 cells. The protocol: as §1
Data set [6] has as its system ZIKV human strain PAN2015. Kind of data set: Plaque assay, inhibition of ZIKV infection (strain PAN2015). It counts as cell-based. The conditions noted are these: Zika virus, Vero C1008, Vero E6 cells. The protocol:
as §1

The test system of the next data set is ZIKV human strain FLR. Put plainly: Plaque assay, inhibition of ZIKV infection (strain FLR). Format: cell-based. The conditions noted are these: Zika virus, Vero C1008; plaque assay, Vero E6 cells, human strain; read-out: IC50 FLR. The protocol:
as §1

The test system of data set [7] is ZIKV human strain R103451. Put plainly: Plaque assay, inhibition of ZIKV infection (strain R103451). To be noted: Zika virus, Vero C1008; plaque assay, Vero E6 cells, human strain; read-out: IC50 R103451. Format: cell-based. The protocol:
as §1

For data set [8], the system named is ZIKV human strain PRVABC59. Put plainly: Plaque assay, inhibition of ZIKV infection (strain PRVABC59). The conditions noted are these: Zika virus, Vero C1008; plaque assay, Vero E6 cells, human strain; read-out: IC50 PRVABC59. It counts as cell-based. The protocol: as §1
The test system of data set [9] is ZIKV human strain PLCal_ZV. Kind of data set: Plaque assay, inhibition of ZIKV infection (strain PLCal_ZV). Format: cell-based. To be noted: Zika virus, Vero C1008; plaque assay, Vero E6 cells, human strain; read-out: IC50 PLCal_ZV. The protocol: as §1
Data set [10] relates to ZIKV human strain IbH 30656. Kind of data set: Plaque assay, inhibition of ZIKV infection (strain IbH 30656). The conditions noted are these: Zika virus, Vero C1008; plaque assay, Vero E6 cells, human strain; read-out: IC50 IbH 30656. It counts as cell-based. The protocol:
as §1

Data set [11] relates to 8 human ZIKV strains (PAN2016, R116265, PAN2015, FLR, R103451, PRVABC59, PLCal_ZV, IbH 30656). Put plainly: microbe, parasite or virus in culture. Format: cell-based. To be noted: Zika virus, read-out: Average IC50 (human strains). The protocol:
as §1

Another data set relates to Vero E6 cells. Kind of data set: Cytotoxicity, Cell Counting Kit-8, Vero E6 cells. It counts as cell-based. The conditions noted are these: African green monkey, 3 days. The protocol: as §2
The mark [12] stands for this setting: Zika virus, Vero C1008, in Homo sapiens, read-out: IC50 against infection of ZIKV PAN2016, plaque assay, Vero E6 cells.
[13] abbreviates: read-out: IC50 against infection of ZIKV PAN2016, plaque assay, Vero E6 cells.

Like-named read-outs stand apart in the source and are kept apart here.

Take `Cc1cc2c(c(O)c1-c1c(C)cc3c(c1O)/C(=C/NCCO)C(=O)C(O)=C3C(C)C)/C(=C/NCCO)C(=O)C(O)=C2C(C)C` [ST004331]: the “SI (CC50/IC50)” value in [1] came out at 1.20. The IC50 in [1] (setting [12]) came to 35.02 ± 0.35 µM. The CC50 at 3 days in [2] (CC50 Vero E6) stood at 42.3 ± 1.17 µM.

Consider `CC(=O)Oc1ccccc1C(=O)Nc1ncc([N+](=O)[O-])s1` [Nitazoxanide], for which the IC50 in the data set on ZIKV infection is 15.9 µM.

Turning to `Oc1cccc(-c2c3nc(c(-c4cccc(O)c4)c4ccc([nH]4)c(-c4cccc(O)c4)c4nc(c(-c5cccc(O)c5)c5ccc2[nH]5)CC4)C=C3)c1` [Temoporfin], the IC50 in the data set with ZIKV infection is 1.1 µM.

`Cc1cc2c(c(O)c1-c1c(C)cc3c(c1O)C(C=C1C(=O)NC(=O)NC1=O)C(=O)C(O)=C3C(C)C)C(C=C1C(=O)NC(=O)NC1=O)C(=O)C(O)=C2C(C)C` (centres unmarked) [ST004335]: the “SI (CC50/IC50)” value in data set [1] came to 2.7. In addition, in data set [1] (setting [12]), the IC50 came out at 27.4 ± 2.5 µM. Further, in [2] (Vero E6 cells, CCK8, 3 days, read-out: CC50 Vero E6), the CC50 at 3 days came out at 73.9 ± 1.68 µM.

In the case of `Cc1cc2c(C(C)C)c(O)c(O)c3c2c(c1-c1c(C)cc2c(C(C)C)c(O)c(O)c4c2c1OC4N)OC3N` (centres unmarked) [ST069299], the IC50 in data set [1] (setting [12]) was 2.3 µM; in data set [1] (setting [13]), 2.34 ± 0.06 µM; in [3], 3.9 µM; in data set [4], 4.9 µM; in data set [5], 2.6 µM; in [6], 2.3 µM. Besides, the IC50 with ZIKV human strain FLR stood at 3.3 µM; in data set [7], 3.9 µM; in data set [8], 3.3 µM; in data set [9] it was 4 µM; in data set [10], 2.5 µM; in data set [11], 3 µM. Further, half-maximal cytotoxicity in data set [2] (CC50 Vero E6) (CC50 at 3 days) was put at 25.9 µM. In addition, the CC50 with Vero E6 cells is 25.9 ± 2.7 µM.

Take `CC(C)OC(=O)[C@H](C)N[P@](=O)(OC[C@H]1O[C@@H](n2ccc(=O)[nH]c2=O)[C@](C)(F)[C@@H]1O)Oc1ccccc1` [Sofosbuvir]: the half-inhibitory concentration (IC50) with ZIKV infection was 9.6 µM.

As for `Cc1cc2c(C(C)C)c(O)c(O)c(/C=N/NC(=O)C(C)C)c2c(O)c1-c1c(C)cc2c(C(C)C)c(O)c(O)c(/C=N/NC(=O)C(C)C)c2c1O` [ST086273], the “SI (CC50/IC50)” value in [1] is reported as 10.23. Besides, the IC50 in [1] (setting [12]) was determined as 4.8 µM; in data set [1] (setting [13]), 4.93 ± 0.7 µM; in [3], 2.8 µM; in data set [4] it was 5.5 µM; in data set [5] it was 7.9 µM; in [6], 5 µM. Further, the IC50 in the data set on ZIKV human strain FLR worked out at 4.2 µM; in data set [7], 7 µM; in data set [8] it was 4 µM; in data set [9] it was 5.9 µM; in data set [10] it was 5.4 µM; in data set [11] it was 5.5 µM. The midpoint of cytotoxicity in data set [2] (CC50 Vero E6), the CC50 at 3 days, lay at 50.5 µM. Also, the CC50 with Vero E6 cells stood at 50.5 ± 3.36 µM.

`Cc1cc2c(c(O)c1-c1c(C)cc3c(c1O)/C(=C/NCc1cccnc1)C(=O)C(O)=C3C(C)C)/C(=C/NCc1cccnc1)C(=O)C(O)=C2C(C)C` [ST005135]: the “SI (CC50/IC50)” value in data set [1] is 2.97. In addition, the IC50 in data set [1] (setting [12]) amounted to 35 ± 2.86 µM. Further, in data set [2] (CC50 Vero E6), the midpoint of cytotoxicity, the CC50 at 3 days, lay at 104 ± 2.2 µM.

For the molecule `Cc1cc2nc[nH]c2c(/N=C/c2c(O)c(O)c(C(C)C)c3cc(C)c(-c4c(C)cc5c(C(C)C)c(O)c(O)c(/C=N/c6c(C)c(C)cc7nc[nH]c67)c5c4O)c(O)c23)c1C` [ST092971], the “SI (CC50/IC50)” value in data set [1] was 14.48. Besides, the IC50 in [1] (setting [12]) amounted to 5 µM; in data set [1] (setting [13]), 4.98 ± 0.01 µM; in data set [3] it was 13.5 µM; in data set [4] it was 5.2 µM; in data set [5], 8 µM; in data set [6] it was 5 µM. In addition, the IC50 was determined as 6.9 µM with ZIKV human strain FLR; 6.6 µM in data set [7]; 9.1 µM in data set [8]; 6.7 µM in [9]; 5.2 µM in [10]; 6.6 µM in data set [11]. In addition, half-maximal cytotoxicity in data set [2] (CC50 Vero E6) (CC50 at 3 days) was put at 72.1 µM. Also, the midpoint of cytotoxicity with Vero E6 cells, the CC50, lay at 72.1 ± 1.91 µM.
